According to US10821115B2, “Compounds that inhibit Mcl-1 protein” (priority 2017, dated 2020):
Read-outs that look alike come from different tables or passages of the source.

Columns and labels:
[1] = target: recombinant human Mcl-1 (residues 171-327) / Bim interaction (Homo sapiens (Human), UniProt Q07820); assay: biochemical; format: binding; settings: read-out: Mcl-1 HTRF IC50
[2] = system: human multiple myeloma cell line, OPM-2; assay: Cell viability assay (OPM-2 10 FBS), CellTiter-Glo; format: cell-based
Outline: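 Serially diluted test compounds are incubated 16 h with cells (3000/well) in RPMI 1640 supplemented with 10% FBS. Viability is then measured by luminescence and IC50 calculated by 4-parameter logistic fit.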

[3] = TR-FRET, Mcl-1(171-327) / biotin-Bim (51-76)
[4] = 0.1 nM Mcl-1(171-327), 0.05 nM biotin-Bim (51-76)
[5] = Homo sapiens, OPM-2, 16 h, read-out: OPM-2 10% FBS IC50 IP, OPM-2 cells, 10% FBS, 16 h, CellTiter-Glo
[6] = Homo sapiens, OPM-2, 16 h, read-out: OPM-2 10% FBS IC50 IP, OPM-2 cells, 10% FBS, 16 h incubation

Chain of recombinant human Mcl-1 (residues 171-327) / Bim interaction (Q07820 171-327): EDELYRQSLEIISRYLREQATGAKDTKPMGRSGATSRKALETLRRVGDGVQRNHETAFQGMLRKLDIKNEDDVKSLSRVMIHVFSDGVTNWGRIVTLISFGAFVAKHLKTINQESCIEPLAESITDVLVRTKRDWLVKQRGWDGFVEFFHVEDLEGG

Q: With `C[C@H]1CC/C=C/[C@](C)(O)[C@@H]2CC[C@H]2CN2C[C@@]3(CCCc4cc(Cl)ccc43)COc3ccc(cc32)C(=O)NS1(=O)=O` (single isomer, unassigned) [Example 100028] as the compound, how does the IC50 [1, 3] read?
A: 1.26 nM

Q: For `CC#C[C@]1(O)CCCCCS(=O)(=O)NC(=O)c2ccc3c(c2)N(C[C@@H]2CC[C@H]21)C[C@@]1(CCCc2cc(Cl)ccc21)CO3` [Example 100025, (1S,3′R,6′R,7′S)-6-chloro-7′-hydroxy-7′-(1-propyn-1-yl)-3,4-dihydro-2H,15′H-spiro[naphthalene-1,22′-[20]oxa[13]thia[1,14]diazatetracyclo [14.7.2.0~3,6~.0~19,24~]pentacosa[16,18,24]trien]-15′-one 13′,13′-dioxide], which IC50 [1, 3] is on record?
A: 2.35 nM

Q: `C[C@H]1CC/C=C/[C@@](C)(O)[C@@H]2CC[C@H]2CN2C[C@@]3(CCCc4cc(Cl)ccc43)COc3ccc(cc32)C(=O)NS1(=O)=O` (single isomer, unassigned) [Example 100032] was tested. Which IC50 [1, 3] did it give?
A: 0.442 nM

Q: With `C[C@@H]1[C@@H](C)C/C=C/[C@@](O)(CS(=O)(=O)N(C)C)[C@@H]2CC[C@H]2CN2C[C@@]3(CCCc4cc(Cl)ccc43)COc3ccc(cc32)C(=O)NS1(=O)=O` (single isomer, unassigned) [Example 100020] as the compound, how does the IC50 [1] read?
A: 0.032 nM

Q: How did the IC50 [1, 4] turn out when `CCO[C@@]1(CN2CCN3CCOC[C@@H]3C2)/C=C/C[C@H](C)[C@@H](C)S(=O)(=O)NC(=O)c2ccc3c(c2)N(C[C@@H]2CC[C@H]21)C[C@@]1(CCCc2ccccc21)CO3` [Example 105, (1S,3′R,6′R,7′S,8′E,11′S,12′R)-7′-ethoxy-7′-((9aS)-hexahydropyrazino[2,1-c][1,4]oxazin-8(1H)-ylmethyl)-11′,12′-dimethyl-3,4-dihydro-2H, 15′H-spiro[naphthalene-1,22′-[20]oxa[13]thia[1,14]diazatetracyclo[14.7.2.0-3,6˜.0˜19,24˜]pentacosa[8,16,18,24]tetraen]-15′-one 13′,13′-dioxide] was run?
A: 0.423 nM

Q: `C[C@@H]1CC[C@@H]2CC2[C@](C)(O)[C@@H]2CC[C@H]2CN2C[C@@]3(CCCc4cc(Cl)ccc43)COc3ccc(cc32)C(=O)NS1(=O)=O` (stereo in doubt) [Example 100033, (1S,3′R,6′R,7′S,8′S,13′R)-6-chloro-7′-hydroxy-7′,13′-dimethyl-3,4-dihydro-2H,16′H-spiro[naphthalene-1,23′-[21]oxa[14]thia[1,15]diazapentacyclo [15.7.2.0~3,6~.0~8,10~.0~20,25~]hexacosa [17,19,25]trien]-16′-one 14′,14′-dioxide] was tested. Which IC50 [1, 3] did it give?
A: 2.81 nM

Q: For `N#C[C@]1(O)CCCCCS(=O)(=O)NC(=O)c2ccc3c(c2)N(C[C@@H]2CC[C@H]21)C[C@@]1(CCCc2cc(Cl)ccc21)CO3` [Example 100027, (1S,3′R,6′R,7′S)-6-chloro-7′-hydroxy-15′-oxo-3,4-dihydro-2H-spiro[naphthalene-1,22′-[20]oxa[13]thia[1,14]diazatetracyclo [14.7.2.0~3,6~.0~19,24~]pentacosa[16,18,24]triene]-7′-carbonitrile 13′,13′-dioxide], which IC50 [1, 3] is on record?
A: 7.34 nM

Q: For `CC(C)N1CCO[C@]2(/C=C/C[C@H](C)[C@@H](C)S(=O)(=O)NC(=O)c3ccc4c(c3)N(C[C@@H]3CC[C@H]32)C[C@@]2(CCCc3cc(Cl)ccc32)CO4)C1` [Example 127, (1 S,3′R,6′R,7′S,8′E, 11′S,12′R)-6-chloro-11′,12′-dimethyl-4″-(1-methylethyl)-3,4-dihydro-2H,15′H-dispiro[naphthalene-1,22′-[20]oxa[13]thia[1,14]diazatetracyclo[14.7.2.0-3,6˜.0˜19,24˜]pentacosa[8,16,18,24]tetraene-7′,2″-[1,4]oxazinan]-15′-one 13′,13′-dioxide], which IC50 [1, 4] is on record?
A: 0.395 nM

Q: Which IC50 [1, 3] does the source give for `CC#C[C@@]1(O)CCCCCS(=O)(=O)NC(=O)c2ccc3c(c2)N(C[C@@H]2CC[C@H]21)C[C@@]1(CCCc2cc(Cl)ccc21)CO3` [Example 100026, (1S,3′R,6′R,7′R)-6-chloro-7′-hydroxy-7′-(1-propyn-1-yl)-3,4-dihydro-2H,15′H-spiro[naphthalene-1,22′-[20]oxa[13]thia[1,14]diazatetracyclo [14.7.2.0~3,6~.0~19,24~]pentacosa[16,18,24]trien]-15′-one 13′,13′-dioxide] here?
A: 2.15 nM

Q: For `C[C@]1(O)CCCCCS(=O)(=O)NC(=O)c2ccc3c(c2)N(C[C@@H]2CC[C@H]21)C[C@@]1(CCCc2cc(Cl)ccc21)CO3` [Example 100023, (1S,3′R,6′R,7′S)-6-chloro-7′-hydroxy-7′-methyl-3,4-dihydro-2H,15′H-spiro[naphthalene-1,22′-[20]oxa[13]thia[1,14]diazatetracyclo [14.7.2.0~3,6~.0~19,24~]pentacosa[16,18,24]trien]-15′-one 13′,13′-dioxide], which IC50 [1, 3] is on record?
A: 3.94 nM

Q: `C[C@@H]1[C@@H](C)C/C=C/[C@@](O)(C#CCCCN2CCOCC2)[C@@H]2CC[C@H]2CN2C[C@@]3(CCCc4cc(Cl)ccc43)COc3ccc(cc32)C(=O)NS1(=O)=O` [Example 100493, (1S,3′R,6′R,7′S,8′E,11′S,12′R)-6-chloro-7′-hydroxy-11′,12′-dimethyl-7′-(5-(4-morpholinyl)-1-pentyn-1-yl)-3,4-dihydro-2H,15′H-spiro[naphthalene-1,22′-[20]oxa[13]thia[1,14]diazatetracyclo [14.7.2.0~3,6~.0~19,24~]pentacosa[8,16,18,24]tetraen]-15′-one 13′,13′-dioxide] was tested. Which IC50 [1, 3] did it give?
A: 0.322 nM

Q: How did the IC50 [1, 4] turn out when `C[C@@H]1[C@@H](C)C/C=C/[C@@]2(CN(C)CCO2)[C@@H]2CC[C@H]2CN2C[C@@]3(CCCc4cc(Cl)ccc43)COc3ccc(cc32)C(=O)NS1(=O)=O` [Example 124, (1S,3′R,6′R,7′S,8′E, 11′S,12′R)-6-chloro-4″,11′,12′-trimethyl-3,4-dihydro-2H,15′H-dispiro[naphthalene-1,22′-[20]oxa[13]thia[1,14]diazatetracyclo[14.7.2.0-3,6˜.0˜19,24˜]pentacosa[8,16,18,24]tetraene-7′,2″-[1,4]oxazinan]-15′-one 13′,13′-dioxide] was run?
A: 0.646 nM

Q: With `C[C@@H]1[C@@H](C)CCC[C@@](CO)(CN2CCOCC2)[C@@H]2CC[C@H]2CN2C[C@@]3(CCCc4cc(Cl)ccc43)COc3ccc(cc32)C(=O)NS1(=O)=O` [Example 100341, (1S,3′R,6′R,7′S,11′S,12′R)-6-chloro-7′-(hydroxymethyl)-11′,12′-dimethyl-7′-(4-morpholinylmethyl)-3,4-dihydro-2H,15′H-spiro[naphthalene-1,22′-[20]oxa[13]thia[1,14]diazatetracyclo [14.7.2.0~3,6~.0~19,24~]pentacosa[16,18,24]trien]-15′-one 13′,13′-dioxide] as the compound, how does the IC50 [2, 5] read?
A: 1940 nM

Q: Which IC50 [2, 6] does the source give for `CO[C@@]1(CN2CCN(C3COC3)CC2)/C=C/C[C@H](C)[C@@H](C)S(=O)(=O)NC(=O)c2ccc3c(n2)N(C[C@@H]2CC[C@H]21)C[C@@]1(CCCc2cc(Cl)ccc21)CO3` [Example 19, (1 S,3′R,6′R,7′S,8′E,11′S,12′R)-6-chloro-7′-methoxy-11′,12′-dimethyl-7′-((4-(3-oxetanyl)-1-piperazinyl)methyl)-3,4-dihydro-2H, 15′H-spiro[naphthalene-1,22′-[20]oxa[13]thia[1,14,25]triazatetracyclo[14.7.2.0-3,6˜.0˜19,24˜]pentacosa[8,16,18,24]tetraen]-15′-one 13′,13′-dioxide] here?
A: 47 nM

Q: How did the IC50 [2, 6] turn out when `CCO[C@]1(CN2CCN(C(C)C)CC2)/C=C/C[C@H](C)[C@@H](CCOC)S(=O)(=O)NC(=O)c2ccc3c(c2)N(C[C@@H]2CC[C@H]21)C[C@@]1(CCCc2cc(Cl)ccc21)CO3` [Example 16, (1S,3′R,6′R,7′R,8′E,11′S,12′R)-6-chloro-7′-ethoxy-12′-(2-methoxyethyl)-11′-methyl-7′-((4-(1-methylethyl)-1-piperazinyl)methyl)-3,4-dihydro-2H, 15′H-spiro[naphthalene-1,22′-[20]oxa[13]thia[1,14]diazatetracyclo[14.7.2.0-3,6˜.0˜19,24˜]pentacosa[8,16,18,24]tetraen]-15′-one 13′,13′-dioxide] was run?
A: 53 nM

Q: `CCN(CC)C(=O)C[C@]1(OC)/C=C/C[C@H](C)[C@@H](C)S(=O)(=O)NC(=O)c2ccc3c(c2)N(C[C@@H]2CC[C@H]21)C[C@@]1(CCCc2cc(Cl)ccc21)CO3` [Example 100347, 2-((1S,3′R,6′R,7′S,8′E,11′S,12′R)-6-chloro-7′-methoxy-11′,12′-dimethyl-13′,13′-dioxido-15′-oxo-3,4-dihydro-2H-spiro[naphthalene-1,22′-[20]oxa[13]thia[1,14]diazatetracyclo [14.7.2.0~3,6~.0~19,24~]pentacosa[8,16,18,24]tetraen]-7′-yl)-N,N-diethylacetamide] was tested. Which IC50 [2, 5] did it give?
A: 1080 nM

Q: With `CO[C@@]1(C#CCCN2CCS(=O)(=O)CC2)/C=C/C[C@H](C)[C@@H](C)S(=O)(=O)NC(=O)c2ccc3c(c2)N(C[C@@H]2CC[C@H]21)C[C@@]1(CCCc2cc(Cl)ccc21)CO3` [Example 100456, (1S,3′R,6′R,7′S,8′E,11′S,12′R)-6-chloro-7′-(4-(1,1-dioxido-4-thiomorpholinyl)-1-butyn-1-yl)-7′-methoxy-11′,12′-dimethyl-3,4-dihydro-2H,15′H-spiro[naphthalene-1,22′-[20]oxa[13]thia[1,14]diazatetracyclo [14.7.2.0~3,6~.0~19,24~]pentacosa[8,16,18,24]tetraen]-15′-one 13′,13′-dioxide] as the compound, how does the IC50 ([2]; read-out: OPM-2 10% FBS IC50 IP, OPM-2 cells, 10% FBS, 16 h, CellTiter-Glo) read?
A: 1230 nM

Q: For `COC[C@@]1(OC)/C=C/C[C@H](C)[C@@H](C)S(=O)(=O)NC(=O)c2ccc3c(c2)N(C[C@@H]2CC[C@H]21)C[C@@]1(CCCc2cc(Cl)ccc21)CO3` [Example 100464, (1S,3′R,6′R,7′R,8′E,11′S,12′R)-6-chloro-7′-methoxy-7′-(methoxymethyl)-11′,12′-dimethyl-3,4-dihydro-2H,15′H-spiro[naphthalene-1,22′-[20]oxa[13]thia[1,14]diazatetracyclo [14.7.2.0~3,6~.0~19,24~]pentacosa[8,16,18,24]tetraen]-15′-one 13′,13′-dioxide], which IC50 [2, 5] is on record?
A: 1530 nM
